Reference: patent US11987642B2, “Bispecific HER2 and CD3 binding molecules” (MEMORIAL SLOAN KETTERING CANCER CENTER, priority 2014, dated 2024)

Key:
SCCHN cell line PCI-30 = assay: Proliferation assay (WST-8), PCI-30; type: cell-based, human
Procedure: (§1) Cell proliferation was determined using an ELISA plate reader and the WST-8 kit (Dojindo technologies) following the manufacturer's instructions and using the formula: % survival rate=(Sample-Background)/(Negative control-Background). Lapatinib (MSKCC pharmacy) was ground using a mortar and pestle and suspended in DMSO as previously described. To determine statistical significance, the results were analyzed using one-way ANOVA using Prism 6.0.

[1] = tested on: HeLa cervical carcinoma cells; assay: Proliferation assay (WST-8), HeLa; type: cell-based, human
Procedure: as §1

U2OS osteosarcoma cells = assay: Proliferation assay (WST-8), U2OS; type: cell-based, human
Procedure: as §1

[2] = tested on: trastuzumab-sensitive breast carcinoma cell line SKBR3; assay: Proliferation assay (WST-8), SKBR3; type: cell-based, human; conditions: SKBR3, 72 hours, 10 μg/mL antibody; lapatinib positive control
Procedure: as §1
For cell proliferation assays, 5,000 tumor cells were plated using RPMI-1640 supplemented with 10% FBS in a 96 well plate for 36 hours before being treated with lapatinib or the antibodies at the specified concentrations. […] Lapatinib (Memorial Sloan Kettering Cancer Center pharmacy) was ground using a mortar and pestle and suspended in DMSO as previously described (Chen et al., 2012, Molecular cancer therapeutics 11:660-669). To determine statistical significance, the results were analyzed using one-way ANOVA using Prism 6.0.

[3] = tested on: HeLa cervical carcinoma cells; assay: T cell cytotoxicity assays, HeLa; type: cell-based, human; conditions: lapatinib pretreatment
Procedure: The ^51Cr release assay was performed with effector T cells cultured in vitro in the presence of anti-CD3 and anti-CD28 for about 14 days. All target tumor cells were harvested with 2 mM EDTA in PBS, labeled with ^51Cr (Amersham, Arlington Height, IL) at 100 μCi/106 cells at 37° C. for 1 h. 5000 target cells/well were mixed with 50,000 effector cells (E:T=10:1) and BsAb antibodies in 96-well polystyrene round-bottom plates (BD Biosciences) to a final volume of 250 μl/well. The plates were incubated at 37° C. for 4 h. The released ^51Cr in supernatant was counted in a γ-counter (Packed Instrument, Downers Grove, IL). Percentage of specific release was calculated using the formula: (experimental cpm−background cpm)/(total cpm−background cpm)×100%, where cpm represented counts per minute of ^51Cr released. […] EC50 was calculated using SigmaPlot software.

HER2-positive cells = assay: Blocking of HER2-BsAb redirected T cell cytotoxicity; type: cell-based, human; conditions: pre-incubation with blocking antibody
HCC1954 xenografts = assay: Subcutaneous HCC1954 xenograft with intravenous PBMC; type: in vivo, DKO mice
Procedure: Subcutaneous xenografts were created with 5×10^6 cells suspended in Matrigel (Corning Corp, Tewksbury MA) and implanted in the flank of DKO mice. Effector peripheral blood mononuclear cell (PBMC) cells were purified from buffy coats purchased from the New York Blood Center. Prior to every experimental procedure, PBMCs were analyzed for their percentage of CD3, CD4, CD8 and CD56 cells to ensure consistency. […] Tumor size was measured using (1) hand-held TM900 scanner (Pieira, Brussels, BE); (2) Calipers; or (3) bioluminescence. Bioluminescence imaging was conducted using the Xenogen In Vivo Imaging System (IVIS) 200 (Caliper LifeSciences). Briefly, mice were injected intravenously with 0.1 mL solution of D-luciferin (Gold Biotechnology; 30 mg/mL stock in PBS). Images were collected 1 to 2 minutes after injection using the following parameters: a 10- to 60-second exposure time, medium binning, and an 8 f/stop. Bioluminescence image analysis was performed using Living Image 2.6 (Caliper LifeSciences).
In two other separate experiments, subcutaneous HER2-positive breast carcinoma cell line HCC1954 was mixed with subcutaneous PBMCs.

Compound | sensitivity of cells in proliferation assay (SCCHN cell line PCI-30) | sensitivity of cells in proliferation assay [1] | sensitivity of cells in proliferation assay (U2OS osteosarcoma cells) | anti-proliferative effect [2] | effect of pretreatment on sensitivity to HER2-BsAb mediated cytotoxicity [3] | effect of blocking on HER2-BsAb induced T cell cytotoxicity (HER2-positive cells) | tumor growth (HCC1954 xenografts)
C#Cc1cccc(Nc2ncnc3cc(OCCOC)c(OCCOC)cc23)c1 [erlotinib] | resistant | pan-resistant | minimal sensitivity |  |  |  | 
CS(=O)(=O)CCNCc1ccc(-c2ccc3ncnc(Nc4ccc(OCc5cccc(F)c5)c(Cl)c4)c3c2)o1 [lapatinib] | resistant | pan-resistant | minimal sensitivity | strongest inhibition of cell proliferation | increased sensitivity |  | 
CCOc1cc2ncc(C#N)c(Nc3ccc(OCc4ccccn4)c(Cl)c3)c2cc1NC(=O)/C=C/CN(C)C [neratinib] | resistant | pan-resistant | minimal sensitivity |  |  |  | 
OKT3: CD3 specific blocking mAb |  |  |  |  |  | prevented HER2-BsAb T cell mediated cytotoxicity | 
huOKT3: humanized OKT3 CD3-specific antibody |  |  |  |  |  | blocked the ability of HER2-BsAb to induce T cell cytotoxicity | only modest effects
